Data on four compounds can be found in US8802597B2, “Herbicidal pyrimidines” (E I du Pont de Nemours and Company, priority 2003, dated 2014).

Where two headings read alike, the source gives them in different places.

Common to all, as to experiment: Test A pre/postemergence
Format in all cases: in vivo

The test system of experiment [1] is barnyardgrass (Echinochloa crus-galli). Conditions: for pest or weed control at 125 g/ha / pest or weed control at 500 g/ha: Echinochloa crus-galli, 240 h, read-out: Plant response rating, Barnyardgrass. A digest of the protocol: (§1)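 Ratings: 0 = no effect, 100 = complete control, assessed visually about ten days post-treatment in a greenhouse. Applications: soil-directed preemergence spray and postemergence spray on 1- to 2-leaf plants, both using a surfactant-containing non-phytotoxic solvent formulation.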

The test system of experiment [2] is crabgrass (Digitaria sanguinalis). Conditions: for pest or weed control at 125 g/ha / pest or weed control at 500 g/ha: Digitaria sanguinalis, 240 h, read-out: Plant response rating, Crabgrass. A digest of the protocol: as §1
Experiment [3] has as its system giant foxtail (Setaria faberi). Conditions: for pest or weed control at 125 g/ha / pest or weed control at 500 g/ha: Setaria faberi, 240 h, read-out: Plant response rating, Foxtail, Giant. A digest of the protocol: as §1
The subject of experiment [4] is morningglory (Ipomoea spp.). Particulars: for pest or weed control at 125 g/ha / pest or weed control at 500 g/ha: Ipomoea, 240 h, read-out: Plant response rating, Morningglory. In a few lines: as §1
In experiment [5] the test system is redroot pigweed (Amaranthus retroflexus). Conditions: for pest or weed control at 125 g/ha / pest or weed control at 500 g/ha: Amaranthus retroflexus, 240 h, read-out: Plant response rating, Pigweed. A digest of the protocol:
as §1

For experiment [6], the system named is velvetleaf (Abutilon theophrasti). Particulars: for pest or weed control at 125 g/ha / pest or weed control at 500 g/ha: Abutilon theophrasti, 240 h, read-out: Plant response rating, Velvetleaf. In a few lines:
as §1

Setting [7] is: post-emergence, Postemergence, 125 g ai/ha, 0 to 100 scale (0 no effect, 100 complete control).
Setting [8] is: post-emergence, Postemergence, 500 g ai/ha, 0 to 100 scale (0 no effect, 100 complete control).
Where [9] appears, read: pre-emergence, Preemergence, 125 g ai/ha, 0 to 100 scale where 0 is no effect and 100 is complete control, approximately ten days.
The mark [10] stands for this setting: pre-emergence, Preemergence, 500 g ai/ha, 0 to 100 scale where 0 is no effect and 100 is complete control, approximately ten days.
The mark [11] stands for this setting: Postemergence, 125 g ai/ha, 0 to 100 scale (0 no effect, 100 complete control).
[12] abbreviates: Postemergence, 500 g ai/ha, 0 to 100 scale (0 no effect, 100 complete control).
Where [13] appears, read: Preemergence, 125 g ai/ha, 0 to 100 scale where 0 is no effect and 100 is complete control, approximately ten days.
Setting [14] is: Preemergence, 500 g ai/ha, 0 to 100 scale where 0 is no effect and 100 is complete control, approximately ten days.

As to `CCOC(=O)c1nc(-c2ccc3ccccc3c2)nc(N)c1Cl` [Compound 127], the pest or weed control at 125 g/ha in experiment [1] (setting [7]), in experiment [1] (setting [9]), in experiment [2] (setting [7]), in experiment [2] (setting [9]), in experiment [3] (setting [7]) and in experiment [3] (setting [9]) was 0% in each case. For the same compound, the pest or weed control at 125 g/ha in experiment [4] (setting [7]) worked out at 0%; in experiment [4] (setting [9]), 0%; in experiment [5] (setting [7]), 0%; in experiment [5] (setting [9]), 0%; in experiment [6] (setting [7]), 60%; in experiment [6] (setting [9]), 0%. The pest or weed control at 500 g/ha in experiment [1] (setting [8]), in experiment [1] (setting [10]), in experiment [2] (setting [8]), in experiment [2] (setting [10]), in experiment [3] (setting [8]) and in experiment [3] (setting [10]) was 0% throughout. Besides, the pest or weed control at 500 g/ha turned out to be 0% in experiment [4] (setting [8]); 0% in experiment [4] (setting [10]); 10% in experiment [5] (setting [8]); 0% in experiment [5] (setting [10]); 80% in experiment [6] (setting [8]); 0% in experiment [6] (setting [10]).
Consider `CCOC(=O)c1nc(-c2ccc(OC(F)(F)F)cc2)nc(N)c1Cl` [Compound 103], for which the “Plant response rating, Barnyardgrass” value in experiment [1] (setting [11]), in experiment [1] (setting [12]), in experiment [1] (setting [13]) and in experiment [1] (setting [14]) was 0 each time. Further, the “Plant response rating, Crabgrass” value in experiment [2] (setting [11]), in experiment [2] (setting [12]), in experiment [2] (setting [13]) and in experiment [2] (setting [14]) was 0 in each case. In addition, the “Plant response rating, Foxtail, Giant” value in experiment [3] (setting [11]), in experiment [3] (setting [12]), in experiment [3] (setting [13]) and in experiment [3] (setting [14]) was 0 throughout. Also, the “Plant response rating, Morningglory” value in experiment [4] (setting [11]), in experiment [4] (setting [12]), in experiment [4] (setting [13]) and in experiment [4] (setting [14]) was 0 throughout. The “Plant response rating, Pigweed” value in experiment [5] (setting [11]) turned out to be 0; in experiment [5] (setting [12]), 20; in experiment [5] (setting [13]) it was 0; in experiment [5] (setting [14]), 10. The “Plant response rating, Velvetleaf” value amounted to 45 in experiment [6] (setting [11]), 70 in experiment [6] (setting [12]), 0 in experiment [6] (setting [13]) and 10 in experiment [6] (setting [14]).
Take `CCOC(=O)COc1nc(C2CC2)nc(N)c1Cl` [Compound 115]: the “Plant response rating, Barnyardgrass” value in experiment [1] (setting [11]) came out at 0; in experiment [1] (setting [12]) it was 0; in experiment [1] (setting [13]), 0; in experiment [1] (setting [14]), 20. Further, the “Plant response rating, Crabgrass” value was determined as 0 in experiment [2] (setting [11]), 0 in experiment [2] (setting [12]), 0 in experiment [2] (setting [13]) and 10 in experiment [2] (setting [14]). Besides, the “Plant response rating, Foxtail, Giant” value in experiment [3] (setting [11]), in experiment [3] (setting [12]), in experiment [3] (setting [13]) and in experiment [3] (setting [14]) was 0 each time. For the same compound, the “Plant response rating, Morningglory” value is 35 in experiment [4] (setting [11]), 60 in experiment [4] (setting [12]), 25 in experiment [4] (setting [13]) and 35 in experiment [4] (setting [14]). For the same compound, the “Plant response rating, Pigweed” value in experiment [5] (setting [11]) was determined as 10; in experiment [5] (setting [12]), 45; in experiment [5] (setting [13]), 30; in experiment [5] (setting [14]) it was 40. The “Plant response rating, Velvetleaf” value in experiment [6] (setting [11]) is 30; in experiment [6] (setting [12]) it was 40; in experiment [6] (setting [13]), 5; in experiment [6] (setting [14]), 10.
Regarding `Nc1nc(C2CC2)nc(C(=O)OCC2CO2)c1Cl` (stereo not drawn) [Compound 140], the “Plant response rating, Barnyardgrass” value is reported as 70 in experiment [1] (setting [11]), 90 in experiment [1] (setting [12]), 70 in experiment [1] (setting [13]) and 90 in experiment [1] (setting [14]). The “Plant response rating, Crabgrass” value in experiment [2] (setting [11]) came out at 65; in experiment [2] (setting [12]), 80; in experiment [2] (setting [13]) it was 70; in experiment [2] (setting [14]), 90. Further, the “Plant response rating, Foxtail, Giant” value in experiment [3] (setting [11]) stood at 85; in experiment [3] (setting [12]), 90; in experiment [3] (setting [13]), 40; in experiment [3] (setting [14]), 85. The “Plant response rating, Morningglory” value in experiment [4] (setting [11]) is given as 85; in experiment [4] (setting [12]), 90; in experiment [4] (setting [13]) it was 90; in experiment [4] (setting [14]), 95. Moreover, the “Plant response rating, Pigweed” value stood at 90 in experiment [5] (setting [11]), 100 in experiment [5] (setting [12]), 90 in experiment [5] (setting [13]) and 95 in experiment [5] (setting [14]). The “Plant response rating, Velvetleaf” value in experiment [6] (setting [11]) was 90; in experiment [6] (setting [12]), 90; in experiment [6] (setting [13]), 90; in experiment [6] (setting [14]), 95.
